Data published in ChEMBL document CHEMBL4334438, “Discovery of novel glycogen synthase kinase-3α inhibitors: Structure-based virtual screening, preliminary SAR and biological evaluation for treatment of acute myeloid leukemia” (Eur J Med Chem, 2019).

How the values were obtained:
[1] = biological target: Tyrosine-protein kinase Fgr (Homo sapiens) (UniProt P09769); test: Inhibition of recombinant human FGR (2 to end residues) assessed as residual activity at 1 uM using poly(Glu, Tyr) 4:1 as substrate at 40 mins in presence of [gamma-33ATP] by scintillation counting based radiometry assay relative to control
[2] = biological target: NT-3 growth factor receptor (Homo sapiens) (UniProt Q16288); test: Inhibition of human TrkC (510 to end residues) assessed as residual activity at 1 uM using GEEPLYWSFPAKKK as substrate measured after 40 mins in presence of [gamma33P]ATP by scintillation counting method relative to control
[3] = biological target: Serine/threonine-protein kinase Chk2 (Homo sapiens) (UniProt O96017); test: Inhibition of recombinant human CHK2 (5 to end residues) assessed as residual activity at 1 uM using KKKVSRSGLYRSPSMPENLNRPR as substrate incubated for 40 mins in presence of [gamma-33ATP] by scintillation counting based radiometry assay relative to control
[4] = biological target: Receptor-interacting serine/threonine-protein kinase 2 (Homo sapiens) (UniProt O43353); test: Inhibition of recombinant human RIPK2 (1 to 299 residues) assessed as residual activity at 1 uM using myelin basic protein as substrate measured after 120 mins in presence of [gamma33P]ATP by scintillation counting method relative to control
[5] = biological target: Vascular endothelial growth factor receptor 1 (Homo sapiens) (UniProt P17948); test: Inhibition of recombinant human FLT1 (783 to end residues) assessed as residual activity at 1 uM using KKKSPGEYVNIEFG as substrate at 40 mins in presence of [gamma-33ATP] by scintillation counting based radiometry assay relative to control
[6] = biological target: Serine/threonine-protein kinase D3 (Homo sapiens) (UniProt O94806); test: Inhibition of recombinant full-length human PKD3 assessed as residual activity at 1 uM using KKLRRTLSVA as substrate measured after 40 mins in presence of [gamma33P]ATP by scintillation counting method relative to control
[7] = biological target: MAP kinase-activated protein kinase 3 (Homo sapiens) (UniProt Q16644); test: Inhibition of recombinant human MAPKAPK3 (2 to end residues) assessed as residual activity at 1 uM using KKLNRTLSVA as substrate incubated for 40 mins in presence of [gamma-33ATP by scintillation counting based radiometry assay relative to control
[8] = biological target: Fibroblast growth factor receptor 3 (Homo sapiens) (UniProt P22607); test: Inhibition of recombinant human FGFR3 (447 to 761 residues) assessed as residual activity at 1 uM using poly(Glu, Tyr) 4:1 as substrate at 40 mins in presence of [gamma-33ATP] by scintillation counting based radiometry assay relative to control
[9] = biological target: T1, cGMP-dependent protein kinase 1 (Homo sapiens) (UniProt Q13976); test: Inhibition of recombinant full-length human PKG1beta assessed as residual activity at 1 uM using RRRLSFAEPG as substrate measured after 40 mins in presence of [gamma33P]ATP by scintillation counting method relative to control
T1 sequence (whole entry): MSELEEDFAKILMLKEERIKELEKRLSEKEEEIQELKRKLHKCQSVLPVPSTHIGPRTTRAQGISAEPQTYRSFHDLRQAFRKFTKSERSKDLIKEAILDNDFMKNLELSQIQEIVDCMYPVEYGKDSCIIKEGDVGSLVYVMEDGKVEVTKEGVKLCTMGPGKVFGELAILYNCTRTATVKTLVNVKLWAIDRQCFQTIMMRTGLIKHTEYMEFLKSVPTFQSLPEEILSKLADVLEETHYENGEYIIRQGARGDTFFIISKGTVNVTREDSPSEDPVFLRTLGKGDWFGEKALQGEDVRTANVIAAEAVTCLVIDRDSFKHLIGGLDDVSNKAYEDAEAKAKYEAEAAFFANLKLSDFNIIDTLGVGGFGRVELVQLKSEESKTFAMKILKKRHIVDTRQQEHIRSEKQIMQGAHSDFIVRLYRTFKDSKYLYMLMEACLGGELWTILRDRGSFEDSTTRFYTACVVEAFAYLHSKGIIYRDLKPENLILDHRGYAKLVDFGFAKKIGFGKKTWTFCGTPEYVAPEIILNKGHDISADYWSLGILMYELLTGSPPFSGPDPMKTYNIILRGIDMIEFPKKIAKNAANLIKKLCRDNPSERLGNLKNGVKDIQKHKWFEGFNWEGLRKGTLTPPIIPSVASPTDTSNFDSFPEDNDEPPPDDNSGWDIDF

[10] = biological target: Serine/threonine-protein kinase DCLK2 (Homo sapiens) (UniProt Q8N568); test: Inhibition of recombinant human DCAMKL2 (376 to end residues) assessed as residual activity at 1 uM using KKLNRTLSFAEPG as substrate at 40 mins in presence of [gamma-33ATP] by scintillation counting based radiometry assay relative to control
[11] = biological target: Serine/threonine-protein kinase PLK1 (Homo sapiens) (UniProt P53350); test: Inhibition of recombinant full-length human Plk1 assessed as residual activity at 1 uM using casein as substrate measured after 40 mins in presence of [gamma33P]ATP by scintillation counting method relative to control
[12] = biological target: Serine/threonine-protein kinase PAK 1 (Homo sapiens) (UniProt Q13153); test: Inhibition of recombinant human PAK1 (150 to end residues) assessed as residual activity at 1 uM using RRRLSFAEPG as substrate measured after 40 mins in presence of [gamma33P]ATP by scintillation counting method relative to control
[13] = biological target: Cyclin-dependent kinase 2/cyclin E1 (Homo sapiens) (UniProt P24864+P24941); test: Inhibition of recombinant full length human CDK2/CyclinE assessed as residual activity at 1 uM using Histone H1 as substrate incubated for 40 mins in presence of [gamma-33ATP] by scintillation counting based radiometry assay relative to control; assay type: protein-complex assay
[14] = biological target: Mitogen-activated protein kinase kinase kinase kinase 4 (Homo sapiens) (UniProt O95819); test: Inhibition of recombinant human MAP4K4 (1 to 328 residues) assessed as residual activity at 1 uM using RLGRDKYKTLRQIRQ as substrate incubated for 40 mins in presence of [gamma-33ATP by scintillation counting based radiometry assay relative to control
[15] = tested on: Macrophage colony-stimulating factor 1 receptor (Homo sapiens), P07333 [Y969C]; test: Inhibition of recombinant human FMS Y969C mutant (538 to end residues) assessed as residual activity at 1 uM using EEEEYEEEEEEYYIIEEEEEEYEEEEEEYYEEEEEEKKKK as substrate at 40 mins in presence of [gamma-33ATP] by scintillation counting based radiometry assay relative to control
[16] = tested on: Platelet-derived growth factor receptor alpha (Homo sapiens), P16234 [D842V]; test: Inhibition of human PDGFRalpha D842V mutant (550 to end residues) assessed as residual activity at 1 uM using GGMEDIYFEFMGGKKK as substrate measured after 40 mins in presence of [gamma33P]ATP by scintillation counting method relative to control
Platelet-derived growth factor receptor alpha (Homo sapiens), P16234 [D842V], sequence (P16234 whole entry D842V): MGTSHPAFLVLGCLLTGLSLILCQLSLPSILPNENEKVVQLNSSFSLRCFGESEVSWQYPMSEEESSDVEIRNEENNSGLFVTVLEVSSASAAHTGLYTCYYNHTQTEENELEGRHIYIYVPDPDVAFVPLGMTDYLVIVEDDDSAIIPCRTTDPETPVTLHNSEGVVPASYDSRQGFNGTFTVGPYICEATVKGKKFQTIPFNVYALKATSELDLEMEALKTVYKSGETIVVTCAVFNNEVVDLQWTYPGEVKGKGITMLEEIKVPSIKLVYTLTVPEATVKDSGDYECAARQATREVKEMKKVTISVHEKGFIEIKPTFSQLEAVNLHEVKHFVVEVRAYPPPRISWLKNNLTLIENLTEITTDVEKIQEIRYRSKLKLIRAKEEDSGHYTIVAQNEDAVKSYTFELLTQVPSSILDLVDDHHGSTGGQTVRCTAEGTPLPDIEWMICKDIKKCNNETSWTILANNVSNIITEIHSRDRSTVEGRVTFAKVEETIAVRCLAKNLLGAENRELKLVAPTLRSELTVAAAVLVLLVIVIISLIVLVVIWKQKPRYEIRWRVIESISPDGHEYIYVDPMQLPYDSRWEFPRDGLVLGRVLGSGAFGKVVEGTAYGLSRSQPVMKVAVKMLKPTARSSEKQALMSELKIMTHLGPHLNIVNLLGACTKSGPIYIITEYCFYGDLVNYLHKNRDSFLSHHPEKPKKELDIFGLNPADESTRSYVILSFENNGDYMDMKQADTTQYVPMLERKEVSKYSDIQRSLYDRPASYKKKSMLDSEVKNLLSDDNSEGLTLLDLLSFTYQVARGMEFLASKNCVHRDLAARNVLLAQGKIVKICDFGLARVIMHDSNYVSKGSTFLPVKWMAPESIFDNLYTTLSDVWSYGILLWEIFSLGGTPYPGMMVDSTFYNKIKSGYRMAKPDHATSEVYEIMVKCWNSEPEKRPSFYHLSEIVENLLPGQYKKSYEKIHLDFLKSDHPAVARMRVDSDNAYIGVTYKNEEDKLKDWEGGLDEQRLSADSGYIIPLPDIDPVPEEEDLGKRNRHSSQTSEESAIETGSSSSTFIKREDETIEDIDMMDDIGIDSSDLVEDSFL

NT-3 growth factor receptor (Homo sapiens), sequence (Q16288 32-839 limits assumed): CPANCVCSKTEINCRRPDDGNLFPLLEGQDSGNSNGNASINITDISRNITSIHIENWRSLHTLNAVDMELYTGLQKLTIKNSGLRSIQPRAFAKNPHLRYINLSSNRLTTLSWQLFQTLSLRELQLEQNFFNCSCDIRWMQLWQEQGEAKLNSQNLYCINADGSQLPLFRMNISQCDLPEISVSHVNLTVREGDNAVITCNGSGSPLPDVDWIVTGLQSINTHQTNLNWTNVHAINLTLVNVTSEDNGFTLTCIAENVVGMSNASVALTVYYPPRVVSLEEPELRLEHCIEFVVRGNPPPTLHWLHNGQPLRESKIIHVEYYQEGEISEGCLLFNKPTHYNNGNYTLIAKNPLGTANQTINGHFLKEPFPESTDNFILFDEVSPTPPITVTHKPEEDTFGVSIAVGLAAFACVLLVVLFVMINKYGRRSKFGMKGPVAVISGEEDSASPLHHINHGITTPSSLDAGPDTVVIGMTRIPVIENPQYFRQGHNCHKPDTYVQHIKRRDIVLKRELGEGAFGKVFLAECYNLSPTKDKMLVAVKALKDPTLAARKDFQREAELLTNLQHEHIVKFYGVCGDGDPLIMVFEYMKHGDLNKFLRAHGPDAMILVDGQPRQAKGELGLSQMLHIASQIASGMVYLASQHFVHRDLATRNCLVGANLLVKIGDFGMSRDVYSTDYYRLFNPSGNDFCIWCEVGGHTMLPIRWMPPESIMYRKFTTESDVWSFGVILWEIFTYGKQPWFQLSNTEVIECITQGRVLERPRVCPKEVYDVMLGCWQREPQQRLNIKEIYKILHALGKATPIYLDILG
Serine/threonine-protein kinase PAK 1 (Homo sapiens), sequence (Q13153 whole entry): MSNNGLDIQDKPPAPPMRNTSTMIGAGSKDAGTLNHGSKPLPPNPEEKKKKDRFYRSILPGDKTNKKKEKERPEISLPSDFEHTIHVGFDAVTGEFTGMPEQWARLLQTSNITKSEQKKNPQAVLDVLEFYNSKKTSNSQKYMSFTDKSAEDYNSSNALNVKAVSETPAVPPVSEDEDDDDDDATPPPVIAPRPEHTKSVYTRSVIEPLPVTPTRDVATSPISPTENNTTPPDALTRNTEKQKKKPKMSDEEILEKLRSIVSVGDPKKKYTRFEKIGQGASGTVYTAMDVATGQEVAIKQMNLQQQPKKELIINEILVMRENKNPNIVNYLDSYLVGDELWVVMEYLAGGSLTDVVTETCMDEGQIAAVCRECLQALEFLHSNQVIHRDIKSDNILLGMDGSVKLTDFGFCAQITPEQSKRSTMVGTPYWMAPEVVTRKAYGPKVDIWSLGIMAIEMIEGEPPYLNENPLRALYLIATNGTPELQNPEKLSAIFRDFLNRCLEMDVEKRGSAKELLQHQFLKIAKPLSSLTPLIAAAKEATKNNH
Serine/threonine-protein kinase Chk2 (Homo sapiens), sequence (O96017 whole entry, the tested form may be a part): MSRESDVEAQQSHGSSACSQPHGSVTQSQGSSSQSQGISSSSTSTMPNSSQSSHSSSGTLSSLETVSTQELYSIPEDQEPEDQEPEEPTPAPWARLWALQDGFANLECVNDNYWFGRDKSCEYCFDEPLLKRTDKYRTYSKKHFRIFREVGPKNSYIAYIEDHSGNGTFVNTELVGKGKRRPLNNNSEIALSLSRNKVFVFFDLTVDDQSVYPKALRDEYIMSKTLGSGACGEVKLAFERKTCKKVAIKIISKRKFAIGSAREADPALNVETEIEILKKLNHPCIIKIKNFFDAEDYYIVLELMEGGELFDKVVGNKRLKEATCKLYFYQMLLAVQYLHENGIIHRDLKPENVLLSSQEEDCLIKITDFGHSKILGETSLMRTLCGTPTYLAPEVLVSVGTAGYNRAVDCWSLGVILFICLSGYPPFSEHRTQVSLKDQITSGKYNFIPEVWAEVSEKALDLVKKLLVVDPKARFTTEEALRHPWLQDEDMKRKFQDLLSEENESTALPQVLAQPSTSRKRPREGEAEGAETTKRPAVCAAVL
Mitogen-activated protein kinase kinase kinase kinase 4 (Homo sapiens), sequence (O95819 2-1239 limits assumed): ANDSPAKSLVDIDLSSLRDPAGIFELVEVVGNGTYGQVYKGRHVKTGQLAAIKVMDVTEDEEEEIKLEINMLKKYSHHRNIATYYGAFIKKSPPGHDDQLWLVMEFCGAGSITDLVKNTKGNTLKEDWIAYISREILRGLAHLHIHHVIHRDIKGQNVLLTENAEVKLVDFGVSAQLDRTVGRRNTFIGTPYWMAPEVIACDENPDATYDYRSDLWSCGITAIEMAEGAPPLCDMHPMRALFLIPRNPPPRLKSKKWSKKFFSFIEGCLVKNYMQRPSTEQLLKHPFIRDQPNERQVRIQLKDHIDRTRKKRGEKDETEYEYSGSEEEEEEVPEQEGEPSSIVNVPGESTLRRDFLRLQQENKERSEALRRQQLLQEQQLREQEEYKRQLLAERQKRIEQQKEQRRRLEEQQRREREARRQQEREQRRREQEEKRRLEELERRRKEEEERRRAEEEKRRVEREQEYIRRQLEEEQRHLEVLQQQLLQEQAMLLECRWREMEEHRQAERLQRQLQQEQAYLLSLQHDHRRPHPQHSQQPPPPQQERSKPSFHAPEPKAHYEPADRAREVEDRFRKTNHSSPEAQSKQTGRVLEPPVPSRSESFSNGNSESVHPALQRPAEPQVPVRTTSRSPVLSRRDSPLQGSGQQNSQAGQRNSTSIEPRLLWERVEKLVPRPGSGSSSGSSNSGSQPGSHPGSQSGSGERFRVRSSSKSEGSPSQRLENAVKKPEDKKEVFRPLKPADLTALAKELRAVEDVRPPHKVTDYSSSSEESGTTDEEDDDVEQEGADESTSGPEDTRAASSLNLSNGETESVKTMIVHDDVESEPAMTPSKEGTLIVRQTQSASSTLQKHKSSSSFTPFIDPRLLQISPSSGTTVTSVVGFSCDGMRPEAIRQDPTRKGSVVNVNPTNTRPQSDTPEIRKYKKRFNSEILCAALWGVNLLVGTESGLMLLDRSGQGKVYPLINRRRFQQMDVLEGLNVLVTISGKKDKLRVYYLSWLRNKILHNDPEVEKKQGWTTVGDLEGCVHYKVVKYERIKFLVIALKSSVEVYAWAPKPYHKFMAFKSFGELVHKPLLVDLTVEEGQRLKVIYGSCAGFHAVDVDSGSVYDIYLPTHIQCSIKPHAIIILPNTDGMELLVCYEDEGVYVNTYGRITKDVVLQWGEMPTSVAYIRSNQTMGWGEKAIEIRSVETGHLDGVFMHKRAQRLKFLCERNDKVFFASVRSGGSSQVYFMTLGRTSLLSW
Tyrosine-protein kinase Fgr (Homo sapiens), sequence (P09769 2-529 limits assumed): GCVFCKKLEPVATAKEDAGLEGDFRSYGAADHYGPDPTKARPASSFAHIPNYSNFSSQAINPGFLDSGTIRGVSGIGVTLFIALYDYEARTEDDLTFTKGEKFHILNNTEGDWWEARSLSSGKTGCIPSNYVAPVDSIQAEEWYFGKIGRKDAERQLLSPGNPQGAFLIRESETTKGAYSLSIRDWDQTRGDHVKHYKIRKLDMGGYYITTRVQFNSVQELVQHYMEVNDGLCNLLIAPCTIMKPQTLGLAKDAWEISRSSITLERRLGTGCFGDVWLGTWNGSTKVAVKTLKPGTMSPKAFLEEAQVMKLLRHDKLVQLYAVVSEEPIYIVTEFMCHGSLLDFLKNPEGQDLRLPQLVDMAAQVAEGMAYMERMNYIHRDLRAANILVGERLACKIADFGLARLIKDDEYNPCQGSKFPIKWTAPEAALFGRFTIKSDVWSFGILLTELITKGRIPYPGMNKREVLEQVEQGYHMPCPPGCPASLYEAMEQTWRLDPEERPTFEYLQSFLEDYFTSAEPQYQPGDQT

Compound	Activity [1]	Activity [2]	Activity [3]	Activity [4]	Activity [5]	Activity [6]	Activity [7]	Activity [8]	Activity [9]	Activity [10]	Activity [11]	Activity [12]	Activity [13]	Activity [14]	Activity [15]	Activity [16]
C=CCOC(=O)c1cc(-c2ccc(/C=C3/NC(=S)NC3=O)o2)ccc1Cl	90%	98%	92%	62%	96%	94%	96%	106%	100%	104%	103%	100%	58%	95%	95%	100%
N=C1NC(=O)/C(=C\c2ccc(-c3cccc([N+](=O)[O-])c3)o2)S1	81%	104%	94%	66%	97%	89%	97%	107%	82%	102%	99%	104%	62%	82%	106%	97%
